Experimental data reported in PubChem BioAssay AID1963844 (Molecular Pharmacology Branch, DTP, NCI, 2024).
pIC50: −log10 of the molar value. Where “and” joins values, the source holds several entries; their conditions need not be identical. Identical values can stand only once.

Test system: 422866-222-R5-J1-PDC complex spheroid viability
Assay: Anticancer human tumor 422866-222-R5-J1-PDC patient-derived pancreatic adenocarcinoma cell line growth inhibition [POLQ]
Settings: for viability, T/C: stronger effect = lower value; for pIC50: curve of compound
Description: Multicellular complex tumor spheroid response to Polymerase (POL) inhibitors (novobiocin, ART-558, RP6685) in combination with a variety of drugs and investigational agents in selected tumor cell lines
The POL inhibitors (novobiocin, ART-558, and RP6685) were evaluated both individually and in combination with standard of care and investigational anticancer small molecules within a complex spheroid model of solid tumors. . Complex spheroids include a stromal component modeled by human endothelial cells (HUVEC) and fibroblasts modeled by human mesenchymal stem cells (MSCs). The concentration ranges selected for each drug and investigational agent were based upon clinically achievable concentrations if the clinical Cmax of the agent was known.
Compounds. The drugs and investigational agents: novobiocin (NSC847541), ART-558 (NSC835418), RP-6685 (NSC848927), peposertib (NSC802822), ceralasertib (NSC780249), elimusertib (NSC800525), camonsertib (NSC841442), AZD-1390 (NSC803789), olaparib (NSC753686), talazoparib (NSC767125), rucaparib (NSC756644), sotorasib (NSC818433), MRTX-1133 (NSC836407), SN-38 (NSC673596), topotecan (NSC609699), epotoside (NSC141540), doxorubicin (NSC123127), gemcitabine (NSC613327), 5-fluorouracil (NSC19893), paclitaxel (NSC125973), vemurafenib (NSC761431), MSA-2 (NSC828583), SN-011 (NSC837082), adavosertib (NSC754352), prexasertib (NSC758257), carboplatin (NSC241240) and oxaliplatin (NSC266046), were obtained from the National Cancer Institute (NCI) Developmental Therapeutics Program Chemical Repository (21). The FDA-approved anticancer drug set is available from the Developmental Therapeutics Program at https://dtp.cancer.gov/organization/dscb/obtaining/. […] The stock solutions were prepared in dimethyl sulfoxide (DMSO, Sigma-Aldrich, St. Louis, MO, cat. D2650), except for the platinum compounds which were prepared in saline (Quality Biological, Gaithersburg, MD, cat. 114-055-101), at 800-fold the tested concentration and stored at -70 degrees C prior to their use. All drugs and investigational agents were tested over a range starting from a high concentration at or near the clinical Cmax and decreasing in half-log increments. If the clinical Cmax for an agent had not been determined, the highest concentration tested was 10 microM, except for SN-38, which was tested at a high concentration of 1 microM.
Cell Culture. All cells were maintained in an incubator at 37 degrees C and 5% CO2 with 95% humidity. The PDC lines were cultured according to standard operating procedures established by the NCI PDMR (https://pdmr.cancer.gov). Table 3 of the manuscript, lists the cell lines along with the number of the three cell types plated to form the mct-spheroids and media for tumor cell growth. After thawing, all PDC lines, except 997537-175-T-J1-PDC and 415267-285-R-J2-PDC, were cultured in Matrigel-coated flasks prepared with a working solution of 1X Ham's F-12 nutrient mix, without supplementation (Thermo Fisher Scientific, cat. 11765054), 100 U/mL penicillin-streptomycin (Thermo Fisher Scientific, cat. 15140122), and 2.5% Matrigel (Corning Inc., Corning, NY, cat. 354248) for the first three passages. The two PDC lines 997537-175-T-J1-PDC and 415267-285-R-J2-PDC were cultured on uncoated flasks. The 857933-349-R-J2-PDC line was cultured in 6C/Colon 1B media containing advanced DMEM/F-12 (Thermo Fisher Scientific, cat. 12634028), 10 mM HEPES (Thermo Fisher Scientific, cat. 15630080), 1X GlutaMAX supplement (Thermo Fisher Scientific, cat. 35050061), 0.1 mg/mL primocin (InvivoGen, San Diego, CA, cat. ant-pm-2), 10% defined fetal bovine serum, heat inactivated (HyClone Laboratories Inc., Logan, UT, cat. SH30070.03HI), 50% L-WRN conditioned media (ATCC, cat. CRL-3276), 1.25 mM N-Acetyl-L-cysteine (Sigma-Aldrich, cat. A9165), 10 mM nicotinamide (Sigma-Aldrich, cat. N0636), 1X B-27 supplement (Thermo Fisher Scientific, cat. 17504044), 1X N-2 supplement (Thermo Fisher Scientific, cat. […]
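Note: spheroids exposed to compounds for one week before readout.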
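Throughout, for viability, T/C: percent of DMSO vehicle wells luminescence so 100% = untreated viability.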

Structure (SMILES)	viability, T/C (compound 0.0316 µM)	viability, T/C (compound 0.1 µM)	viability, T/C (compound 0.316 µM)	viability, T/C (compound 1 µM)	viability, T/C (compound 3.16 µM)	viability, T/C (compound 10 µM)	pIC50	viability, T/C (compound 0.00316 µM)	viability, T/C (compound 0.01 µM)	viability, T/C (compound 0.00949 µM)	viability, T/C (compound 0.03 µM)	viability, T/C (compound 0.0949 µM)	viability, T/C (compound 0.3 µM)	viability, T/C (compound 0.949 µM)	viability, T/C (compound 3 µM)	viability, T/C (compound 0.000316 µM)	viability, T/C (compound 0.001 µM)
C#Cc1c(F)ccc2cc(O)cc(-c3ncc4c(N5CC6CCC(C5)N6)nc(OCC56CCCN5CC(F)C6)nc4c3F)c12 (stereo unspecified)	93% and 91.1% and 102%	80.5% and 89.6% and 83.2%	60.1% and 59.7% and 68.7%	44% and 50.6% and 51.8%	33.9% and 34.4% and 34.3%	26.9% and 24.2% and 26%	6.18 and 6.06 and 5.97										
C=CC(=O)N1CCN(c2nc(=O)n(-c3c(C)ccnc3C(C)C)c3nc(-c4c(O)cccc4F)c(F)cc23)C(C)C1 (stereo unspecified)	30.6% and 30.5% and 34.5%	23.7% and 28.7% and 31.4%	24.4% and 29.1% and 24.3%	23.3% and 29.6% and 26.2%	25.1% and 22.9% and 26.6%	28.1% and 23.5% and 24.2%	> 7.50										
C=CCn1c(=O)c2cnc(Nc3ccc(N4CCN(C)CC4)cc3)nc2n1-c1cccc(C(C)(C)O)n1	105% and 93.5% and 83.3%	85.7% and 91% and 78.1%	56% and 43.9% and 56.5%	36% and 31% and 34.6%			6.36 and 6.57 and 6.35	86.1% and 96.9% and 101%	105% and 93% and 107%								
CC(=O)O[C@H]1C(=O)[C@@]2(C)[C@H]([C@H](OC(=O)c3ccccc3)[C@]3(O)C[C@H](OC(=O)[C@H](O)[C@@H](NC(=O)c4ccccc4)c4ccccc4)C(C)=C1C3(C)C)[C@]1(OC(C)=O)CO[C@@H]1C[C@@H]2O							< 5.52			50.9% and 53.8% and 66.3%	50.2% and 51.8% and 56.2%	54.2% and 52.1% and 68.6%	64.3% and 52.8% and 60.4%	53.7% and 57.4% and 68.9%	61.5% and 58.4% and 69.8%		
CC(C)n1c(=O)n(C)c2cnc3cc(F)c(-c4ccc(OCCCN5CCCCC5)nc4)cc3c21	105% and 90.3% and 107%	98.6% and 91.8% and 89.1%	110% and 103% and 104%		93.9% and 88.3% and 79.2%	70.4% and 52.7% and 75.8%	< 5.00										
CC1COCCN1c1cc(-c2ccnn2C)c2ccnc(-c3ccn[nH]3)c2n1 (stereo unspecified)	76.8% and 96.8% and 97.8%	61.1% and 55.4% and 46.2%	38.6% and 42.8% and 35.1%	44.4% and 36.6% and 37.6%	80.4% and 81.7% and 64%	69.2% and 80.5% and 68.2%	< 5.00 and 5.00										
CC1COCCN1c1cc(C2(O)CC3CCC(C2)O3)c2cnn(-c3ccn[nH]3)c2n1 (stereo unspecified)	81.2% and 74.1% and 69.6%	53.5% and 43.4% and 42.3%	50.6% and 44.2% and 35.5%	84% and 70.7% and 73.2%	80.6% and 79% and 77.3%	65.8% and 78.8% and 62.6%	< 5.00										
CC1COCCN1c1cc(C2(S(C)(=N)=O)CC2)nc(-c2ccnc3[nH]ccc23)n1 (stereo unspecified)	92.3% and 91.5% and 116%	101% and 93.1% and 100%	93.4% and 95.6% and 96.3%	74% and 72.6% and 85.2%	49.9% and 44.6% and 41.7%	39.9% and 30.8% and 42%	5.52 and 5.61 and 5.58										
CCCS(=O)(=O)Nc1ccc(F)c(C(=O)c2c[nH]c3ncc(-c4ccc(Cl)cc4)cc23)c1F	102% and 117% and 105%	115% and 138% and 140%	130% and 119% and 128%	163% (2×) and 148%	194% and 210% and 192%		< 5.00										
CC[C@@]1(O)C(=O)OCc2c1cc1n(c2=O)Cc2cc3c(CN(C)C)c(O)ccc3nc2-1	48.4% and 37.3% and 41.3%	36% and 32.2% and 33.8%					7.54 and 7.70 and 7.68	88% and 77% and 98.9%	70.4% and 68.2% and 68.5%							104% and 91% and 103%	106% and 95.4% and 94.5%
CCc1c2c(nc3ccc(O)cc13)-c1cc3c(c(=O)n1C2)COC(=O)[C@]3(O)CC	39.4% and 34.2% and 30.3%	39.1% and 34% and 31.1%	32.7% and 37.2% and 29.6%	24.8% and 18.2% and 24.5%			> 8.50	44.8% and 37.1% and 42.1%	37.5% and 32.6% and 33.8%								
CCc1cc2c(N3CCc4c(cc(Cn5ccnc5)cc4-c4cn(C)nc4C(F)(F)F)C3=O)cc(C)nc2c(OC)n1	89.5% and 92.6% and 79.2%	93.5% and 80.2% and 93.8%	96.5% and 104% and 95.6%	120% and 102% and 96.1%		109% and 99.8% and 115%	< 5.00										
